Source: US11053213B2, “Pharmaceutical compounds” (ALMAC DISCOVERY LIMITED, priority 2016, dated 2021)

What follows are compounds tested against USP19 (Homo sapiens (Human), UniProt O94966) (assay: USP19 activity assay (fluorescence polarisation, Ubiquitin-Lys-TAMRA substrate)). Conditions: full-length USP19 2.5 nM, 30 min pre-incubation, Ub substrate 500 nM; average of at least two duplicate experiments.
Type: biochemical

USP19, sequence (O94966 whole entry): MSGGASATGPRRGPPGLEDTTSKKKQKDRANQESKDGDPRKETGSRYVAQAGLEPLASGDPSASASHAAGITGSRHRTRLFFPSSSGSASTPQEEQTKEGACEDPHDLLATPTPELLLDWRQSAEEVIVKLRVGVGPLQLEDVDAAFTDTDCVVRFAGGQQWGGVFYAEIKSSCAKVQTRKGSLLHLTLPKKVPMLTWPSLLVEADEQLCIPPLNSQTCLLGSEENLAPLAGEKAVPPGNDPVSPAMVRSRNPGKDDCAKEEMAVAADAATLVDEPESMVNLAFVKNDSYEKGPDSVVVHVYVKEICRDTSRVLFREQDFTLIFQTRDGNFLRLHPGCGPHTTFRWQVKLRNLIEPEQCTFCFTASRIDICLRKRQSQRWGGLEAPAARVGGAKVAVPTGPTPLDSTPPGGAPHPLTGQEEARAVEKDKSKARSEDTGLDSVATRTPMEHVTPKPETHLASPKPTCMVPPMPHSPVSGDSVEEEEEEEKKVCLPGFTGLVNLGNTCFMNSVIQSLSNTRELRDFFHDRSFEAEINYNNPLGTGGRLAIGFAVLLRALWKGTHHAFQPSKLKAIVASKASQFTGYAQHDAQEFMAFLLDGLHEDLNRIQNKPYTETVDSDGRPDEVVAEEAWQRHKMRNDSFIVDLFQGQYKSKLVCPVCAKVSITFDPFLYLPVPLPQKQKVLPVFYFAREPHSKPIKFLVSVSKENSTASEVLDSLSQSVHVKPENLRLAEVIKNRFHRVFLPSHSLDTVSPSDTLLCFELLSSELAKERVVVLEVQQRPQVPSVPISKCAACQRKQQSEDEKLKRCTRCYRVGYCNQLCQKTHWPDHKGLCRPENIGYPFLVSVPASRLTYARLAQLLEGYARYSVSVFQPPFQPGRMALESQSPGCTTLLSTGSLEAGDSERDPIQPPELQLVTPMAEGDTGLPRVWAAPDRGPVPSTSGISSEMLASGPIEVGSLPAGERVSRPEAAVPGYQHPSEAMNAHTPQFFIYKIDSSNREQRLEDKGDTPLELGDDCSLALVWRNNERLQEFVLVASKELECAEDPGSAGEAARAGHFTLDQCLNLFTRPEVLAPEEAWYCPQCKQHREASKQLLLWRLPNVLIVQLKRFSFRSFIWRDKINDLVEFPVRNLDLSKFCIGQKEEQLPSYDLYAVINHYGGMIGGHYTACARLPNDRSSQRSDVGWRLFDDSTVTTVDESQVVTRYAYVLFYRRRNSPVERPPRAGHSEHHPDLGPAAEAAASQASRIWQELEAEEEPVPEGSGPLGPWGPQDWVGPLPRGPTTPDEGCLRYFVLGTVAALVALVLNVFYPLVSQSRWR

Which IC50 does the source give for `CN(C)C(=O)c1cn(CC2(O)CCN(C(=O)C(C)(C)CC(F)F)CC23CCCC3)c(=O)cc1-c1ccccc1` (centres unmarked) [Example 244, 1-((7-(4,4-Difluoro-2,2-dimethylbutanoyl)-10-hydroxy-7-azaspiro[4.5]decan-10-yl)methyl)-N,N-dimethyl-6-oxo-4-phenyl-1,6-dihydropyridine-3-carboxamide] here?
Its IC50 is 5 to 50 µM.

With `C[C@H](CC1CCCCC1)C(=O)N1CCC(O)(Cn2cc(C(=O)N(C)C)ccc2=O)C2(CCCC2)C1` (stereo partly drawn) [Example 127, 1-((7-((R)-3-Cyclohexyl-2-methylpropanoyl)-10-hydroxy-7-azaspiro[4.5]decan-10-yl)methyl)-N,N-dimethyl-6-oxo-1,6-dihydropyridine-3-carboxamide] as the compound, how does the IC50 read?
The IC50 was 0.5 to 5 µM.

Which IC50 does the source give for `C[C@H](CC1CCCCC1)C(=O)N1CCC(O)(Cn2cc(C(=O)N(C)C)c(-c3cccc(CO)c3)cc2=O)C2(CCCC2)C1` (stereo partly drawn) [Example 156, 1-((7-((R)-3-Cyclohexyl-2-methylpropanoyl)-10-hydroxy-7-azaspiro[4.5]decan-10-yl)methyl)-4-(3-(hydroxymethyl)phenyl)-N,N-dimethyl-6-oxo-1,6-dihydropyridine-3-carboxamide] here?
The IC50 was under 0.5 µM.

How did the IC50 turn out when `O=C(C[C@H](c1ccccc1)C(F)(F)F)N1CCC(O)(Cn2cnc(-c3ccccc3F)cc2=O)CC1` [Example 48, (R)-6-(2-Fluorophenyl)-3-((4-hydroxy-1-(4,4,4-trifluoro-3-phenylbutanoyl)piperidin-4-yl)methyl)pyrimidin-4(3H)-one] was run?
The IC50 was 50 to 250 µM.

With `C[C@H](CC1CCCCC1)C(=O)N1CCC(O)(Cn2cnc(-c3ccsc3)cc2=O)C(C)(C)C1` (stereo partly drawn) [Example 135, 3-((1-((R)-3-Cyclohexyl-2-methylpropanoyl)-4-hydroxy-3,3-dimethylpiperidin-4-yl)methyl)-6-(thiophen-3-yl)pyrimidin-4(3H)-one] as the compound, how does the IC50 read?
Its IC50 is under 0.5 µM.

`CN(C)C(=O)c1cn(CC2(O)CCN(C(=O)C34CC(C3)C4)CC23CCCC3)c(=O)cc1-c1ccccc1` (centres unmarked) [Example 191, 1-((7-(Bicyclo[1.1.1]pentane-1-carbonyl)-10-hydroxy-7-azaspiro[4.5]decan-10-yl)methyl)-N,N-dimethyl-6-oxo-4-phenyl-1,6-dihydropyridine-3-carboxamide] was tested. Which IC50 did it give?
The IC50 was 50 to 250 µM.

For `CC(CN1CCCCC1)C(=O)N1CCC(O)(Cn2cc(C(=O)N(C)C)c(-c3ccccc3)cc2=O)C2(CCCC2)C1` (centres unmarked) [Example 158, 1-((10-Hydroxy-7-(2-methyl-3-(piperidin-1-yl)propanoyl)-7-azaspiro[4.5]decan-10-yl)methyl)-N,N-dimethyl-6-oxo-4-phenyl-1,6-dihydropyridine-3-carboxamide], which IC50 is on record?
The IC50 was 50 to 250 µM.

How did the IC50 turn out when `CCCCC(CC)C(=O)N1CCC(O)(Cn2cc(C(=O)N(C)C(C)C)c(-c3ccccc3)cc2=O)CC1` (racemic) [Example 80, (R,S)-1-((1-(2-Ethylhexanoyl)-4-hydroxypiperidin-4-yl)methyl)-N-isopropyl-N-methyl-6-oxo-4-phenyl-1,6-dihydropyridine-3-carboxamide] was run?
Its IC50 is 5 to 50 µM.

For `C=C(C)c1cc(=O)n(CC2(O)CCN(C(=O)C[C@@H](C)c3ccccc3)CC2)cn1` [Example 29, (R)-3-((4-Hydroxy-1-(3-phenylbutanoyl)piperidin-4-yl)methyl)-6-(prop-1-en-2-yl)pyrimidin-4(3H)-one], which IC50 is on record?
Its IC50 is 50 to 250 µM.

With `CN(C)C(=O)c1cn(CC2(O)CCN(C(=O)COC3CCCCC3)CC23CCCC3)c(=O)cc1-c1ccccc1` (centres unmarked) [Example 194, 1-((7-(2-(Cyclohexyloxy)acetyl)-10-hydroxy-7-azaspiro[4.5]decan-10-yl)methyl)-N,N-dimethyl-6-oxo-4-phenyl-1,6-dihydropyridine-3-carboxamide] as the compound, how does the IC50 read?
Its IC50 is 5 to 50 µM.

For `C[C@H](CC1CC1)C(=O)N1CCC(O)(Cn2cc(C(=O)N(C)C)c(-c3ccccc3)cc2=O)C(C)(C)C1` (stereo partly drawn) [Example 129, 1-((1-((R)-3-Cyclopropyl-2-methylpropanoyl)-4-hydroxy-3,3-dimethylpiperidin-4-yl)methyl)-N,N-dimethyl-6-oxo-4-phenyl-1,6-dihydropyridine-3-carboxamide], which IC50 is on record?
The IC50 was 5 to 50 µM.

Which IC50 does the source give for `C[C@H](CC1CCC1)C(=O)N1CC[C@@](O)(Cn2cc(C(=O)N(C)C)c(-c3ccccc3F)cc2=O)C(C)(C)C1` [Example 235, 1-(((S)-1-((R)-3-Cyclobutyl-2-methylpropanoyl)-4-hydroxy-3,3-dimethylpiperidin-4-yl)methyl)-4-(2-fluorophenyl)-N,N-dimethyl-6-oxo-1,6-dihydropyridine-3-carboxamide] here?
The IC50 was 0.5 to 5 µM.

`CC(C)CC(C)C(=O)N1CCC(O)(Cn2cc(C(=O)N(C)C)c(-c3ccccc3)cc2=O)C2(CCCC2)C1` (centres unmarked) [Example 197] was tested. Which IC50 did it give?
Its IC50 is under 0.5 µM.

How did the IC50 turn out when `C[C@H](CC1CCCCC1)C(=O)N1CCC(O)(Cn2cc(C(=O)N(C)C)c(-c3ccc(CO)cc3)cc2=O)C2(CCCC2)C1` (stereo partly drawn) [Example 162, 1-((7-((R)-3-Cyclohexyl-2-methylpropanoyl)-10-hydroxy-7-azaspiro[4.5]decan-10-yl)methyl)-4-(4-(hydroxymethyl)phenyl)-N,N-dimethyl-6-oxo-1,6-dihydropyridine-3-carboxamide] was run?
The IC50 was under 0.5 µM.

`Cc1c(-c2cc(=O)n(CC3(O)CCN(C(=O)C[C@@H](C)c4ccccc4)CC3)cn2)cnn1C` [Example 112, (R)-6-(1,5-Dimethyl-1H-pyrazol-4-yl)-3-((4-hydroxy-1-(3-phenylbutanoyl)piperidin-4-yl)methyl)pyrimidin-4(3H)-one] was tested. Which IC50 did it give?
Its IC50 is 50 to 250 µM.

How did the IC50 turn out when `CN(C)C(=O)c1cn(CC2(O)CCN(C(=O)CCc3ccc(F)cc3)CC23CCCC3)c(=O)cc1-c1ccccc1` (centres unmarked) [Example 184, 1-((7-(3-(4-Fluorophenyl)propanoyl)-10-hydroxy-7-azaspiro[4.5]decan-10-yl)methyl)-N,N-dimethyl-6-oxo-4-phenyl-1,6-dihydropyridine-3-carboxamide] was run?
The IC50 was 0.5 to 5 µM.

How did the IC50 turn out when `C[C@H](CC(=O)N1CCC(O)(Cn2cc(C(=O)N3CCC(O)CC3)c(-c3ccccc3)cc2=O)CC1)c1ccccc1` [Example 62, (R)-1-((4-Hydroxy-1-(3-phenylbutanoyl)piperidin-4-yl)methyl)-5-(4-hydroxypiperidine-1-carbonyl)-4-phenylpyridin-2(1H)-one] was run?
The IC50 was 0.5 to 5 µM.

Which IC50 does the source give for `CC(C)N(C)C(=O)c1cn(CC2(O)CCN(C(=O)C3(C)CCCC3)CC2)c(=O)cc1-c1ccccc1F` [Example 23, 4-(2-Fluorophenyl)-1-((4-hydroxy-1-(1-methylcyclopentane-1-carbonyl)piperidin-4-yl)methyl)-N-isopropyl-N-methyl-6-oxo-1,6-dihydropyridine-3-carboxamide] here?
The IC50 was 5 to 50 µM.

Which IC50 does the source give for `C[C@H](CC1CC1)C(=O)N1CCC(O)(Cn2cc(C(=O)N(C)C)c(-c3ccccc3)cc2=O)C2(CCCC2)C1` (stereo partly drawn) [Example 149, 1-((7-((R)-3-Cyclopropyl-2-methylpropanoyl)-10-hydroxy-7-azaspiro[4.5]decan-10-yl)methyl)-N,N-dimethyl-6-oxo-4-phenyl-1,6-dihydropyridine-3-carboxamide] here?
Its IC50 is under 0.5 µM.

`C[C@H](CC(=O)N1CCC(O)(Cn2cc(-c3ccco3)c(-c3ccccc3)cc2=O)CC1)c1ccccc1` [Example 8, (R)-5-(Furan-2-yl)-1-((4-hydroxy-1-(3-phenylbutanoyl)piperidin-4-yl)methyl)-4-phenylpyridin-2(1H)-one] was tested. Which IC50 did it give?
The IC50 was 5 to 50 µM.

How did the IC50 turn out when `CC(n1cnc(-c2ccccc2)cc1=O)C1(O)CCN(C(=O)[C@H](C)CC2CCCCC2)CC1` (stereo partly drawn) [Example 108, 3-(1-(1-((R)-3-Cyclohexyl-2-methylpropanoyl)-4-hydroxypiperidin-4-yl)ethyl)-6-phenylpyrimidin-4(3H)-one] was run?
Its IC50 is 0.5 to 5 µM.

How did the IC50 turn out when `CC(OC1CCCCC1)C(=O)N1CCC(O)(Cn2cnc(-c3ccccc3F)cc2=O)C(C)(C)C1` (centres unmarked) [Example 126, 3-((1-(2-(Cyclohexyloxy)propanoyl)-4-hydroxy-3,3-dimethylpiperidin-4-yl)methyl)-6-(2-fluorophenyl)pyrimidin-4(3H)-one] was run?
Its IC50 is 50 to 250 µM.

For `C[C@H](CC(=O)N1CCC(O)(Cn2cc(C(=O)N3CCN(C(=O)OC(C)(C)C)CC3)c(-c3ccccc3)cc2=O)CC1)c1ccccc1` [Example 93, (R)-tert-Butyl 4-(1-((4-hydroxy-1-(3-phenylbutanoyl)piperidin-4-yl)methyl)-6-oxo-4-phenyl-1,6-dihydropyridine-3-carbonyl)piperazine-1-carboxylate], which IC50 is on record?
The IC50 was 5 to 50 µM.

How did the IC50 turn out when `C[C@H](CC(=O)N1CCC(O)(Cc2cnc(-c3ccccc3)[nH]c2=O)CC1)c1ccccc1` [Example 33, (R)-5-((4-Hydroxy-1-(3-phenylbutanoyl)piperidin-4-yl)methyl)-2-phenylpyrimidin-4(3H)-one] was run?
Its IC50 is 5 to 50 µM.

For `C[C@H](CC1CCCCC1)C(=O)N1CC[C@@](O)(Cn2cc(C(=O)N(C)C)c(-c3ccccc3)cc2=O)C(C)(C)C1` [Example 121, 1-(((S)-1-((R)-3-Cyclohexyl-2-methylpropanoyl)-4-hydroxy-3,3-dimethylpiperidin-4-yl)methyl)-N,N-dimethyl-6-oxo-4-phenyl-1,6-dihydropyridine-3-carboxamide], which IC50 is on record?
Its IC50 is under 0.5 µM.

`C[C@H](CC1CCCCC1)C(=O)N1CCC(O)(Cn2cnc(-c3ccccc3F)cc2=O)CC1` [Example 39, (R)-3-((1-(3-Cyclohexyl-2-methylpropanoyl)-4-hydroxypiperidin-4-yl)methyl)-6-(2-fluorophenyl)pyrimidin-4(3H)-one] was tested. Which IC50 did it give?
The IC50 was 5 to 50 µM.

How did the IC50 turn out when `C[C@@H](CC(=O)N1CCC(O)(Cn2cc(C(=O)N(C)C)c(-c3ccccc3)cc2=O)C2(CCCC2)C1)c1ccccc1` (stereo partly drawn) [Example 183, 1-((10-Hydroxy-7-((S)-3-phenylbutanoyl)-7-azaspiro[4.5]decan-10-yl)methyl)-N,N-dimethyl-6-oxo-4-phenyl-1,6-dihydropyridine-3-carboxamide] was run?
The IC50 was 5 to 50 µM.

Which IC50 does the source give for `C[C@H](CC1CCC1)C(=O)N1CC[C@@](O)(Cn2cc(C(=O)N(C)C)c(C3CC3)cc2=O)C2(CCCC2)C1` [Example 230, 1-(((S)-7-((R)-3-Cyclobutyl-2-methylpropanoyl)-10-hydroxy-7-azaspiro[4.5]decan-10-yl)methyl)-4-cyclopropyl-N,N-dimethyl-6-oxo-1,6-dihydropyridine-3-carboxamide] here?
Its IC50 is 0.5 to 5 µM.

Which IC50 does the source give for `CN(C)C(=O)c1cn(C[C@]2(O)CCN(C(=O)[C@H](CO)CC(F)(F)F)CC23CCCC3)c(=O)cc1-c1ccccc1` [Example 247, 1-(((S)-10-Hydroxy-7-((S)-4,4,4-trifluoro-2-(hydroxymethyl)butanoyl)-7-azaspiro[4.5]decan-10-yl)methyl)-N,N-dimethyl-6-oxo-4-phenyl-1,6-dihydropyridine-3-carboxamide] here?
The IC50 was under 0.5 µM.
